Test results as given in US5614374A, “Glycerol dehydrogenase, process for its production and its use” (Toyo Boseki Kabushiki Kaisha, priority 1992, dated 1997).

How the values were obtained:
[1] = system: PQQ-dependent soluble glycerol dehydrogenase from Pseudomonas sp. TE3493 (FERM BP-4169); assay: Km determination of purified glycerol dehydrogenase (ferricyanide activity assay); format: biochemical; conditions: purified enzyme of Example 1
Protocol: (§1) Hereunder is explained a method for the determination of the activity of the novel glycerol dehydrogenase according to the present invention. To the reaction solution are added 0.7 ml of a 50 mM Tris--HCl buffer solution, 0.1 ml of a 0.1 M glycerol and the enzyme solution to a total volume of 0.9 ml. The mixture was preheated at 25° C. for 5 minutes, and 0.1 ml of a 0.1 M potassium ferricyanide was added thereto for the initiation of the reaction. The reaction is terminated by addition of 0.5 ml of ferric sulfate/Dupanol reagent thereto, after which 3.5 ml of distilled water is added thereto to a total volume of 5 ml. Then the mixture was allowed to stand at 25° C. for 30 minutes, followed by measurement of absorbance at 660 nm. A blank test is carried out in the same manner as the above-mentioned one, but adding distilled water instead of the enzyme solution. The activity of glycerol dehydrogenase is expressed with one unit (U) being defined as the enzyme activity which oxidizes 1 μmole of glycerol in 1 minute under the conditions specified above.
In a 500 ml Sakaguchi flask there were placed 100 ml of a culture medium which contained 0.5% glycerol, 0.2% NaNO3, 0.2% (NH4)2 SO4, 1% K2 HPO4, 1% KH2 PO4, 0.02% MgSO4.7H2 O and 0.05% yeast extracts, followed by autoclaving at 121° C. for 15 minutes. One loopful of cells of Pseudomonas sp. […]

[2] = system: PQQ-dependent membrane-bound glycerol dehydrogenase from Gluconobacter industrius IFO 3260; assay: Km determination of comparison glycerol dehydrogenase (membrane-bound); format: biochemical; conditions: enzyme preparation of Comparison 1, solubilized with dimethyldodecylamine oxide
Protocol: as §1
Gluconobacter industrious IFO3260 was cultivated in the same manner as in Example 1. The culture solution was centrifuged to harvest the cells which were then subjected to a conventional manner to yield a membrane fraction. […]

OCC(O)CO [glycerol]
Km [1]: 2.45 mM | Km [2]: 34 mM
